Measurements: patent US9102665B2, “Cysteinyl leukotriene antagonists” (Sun Pharma Advanced Research Company Ltd., priority 2011, dated 2015)

Molecular target: T1, Leukotriene, Cysteinyl CysLT1 (Cavia porcellus, UniProt Q2NNR5)
T1 construct: from tissue; host or cells: guinea pig lung membrane
T1 sequence (Q2NNR5 1-340): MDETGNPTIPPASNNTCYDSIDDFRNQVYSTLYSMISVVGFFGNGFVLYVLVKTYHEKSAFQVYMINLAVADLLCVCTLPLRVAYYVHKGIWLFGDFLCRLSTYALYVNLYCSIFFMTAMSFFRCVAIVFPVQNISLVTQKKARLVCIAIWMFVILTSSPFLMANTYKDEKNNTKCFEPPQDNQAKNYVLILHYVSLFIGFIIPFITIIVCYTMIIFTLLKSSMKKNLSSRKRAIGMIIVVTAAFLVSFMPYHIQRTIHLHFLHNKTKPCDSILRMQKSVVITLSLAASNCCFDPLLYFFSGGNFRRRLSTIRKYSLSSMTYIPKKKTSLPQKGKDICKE
Experiment: receptor radio-ligand-binding assay (Tritiated LTD4 as the ligand), Guinea pig lung membrane
Conditions: 0.2 nM 3H LTD4, Guinea pig lung membrane; for inhibition at 0.001 µM / inhibition at 0.003 µM / inhibition at 0.01 µM: 0.5 h; for inhibition at 0.001 µM: read-out: % Inhbition (in nM) 1; for inhibition at 0.003 µM: read-out: % Inhbition (in nM) 3; for inhibition at 0.01 µM: read-out: % Inhbition (in nM) 10
Method: The primary in-vitro biological screening for the compounds carried-out involving receptor radio-ligand-binding assay (Tritiated LTD4 as the ligand) by known methods described in literature [a). Mong et al. European Journal of Pharmacology (102); 1984 1-11b). Jones et al; Journal of Physiology & Pharmacology (73); 1994, 191-201 c). MDS Pharma Services: 250460 Leukotriene, Cysteinyl CysLT1]. Accordingly, Guinea pig lung membrane (100 ug) is incubated with 0.2 nM 3H LTD4 in presence of Reference Standard/Test item/Vehicle Control. Non Specific Binding is determined by incubating the membrane with 0.2 nM 3H LTD4 in presence of 1 uM of unlabeled LTD4. The samples are incubated at 26° C. for 30 minutes and are vacuum filtered on a membrane to separate the bound and free radioligand. The membrane is counted in a liquid scintillation counter to calculate the bound radioactivity. Specific Binding in Vehicle treated and Reference Standard/Test item treated set is compared to evaluate the % Inhibition values. Some of the compounds have shown >50% inhibition in the presence of ≦3 nano-molar concentration of the compounds of present invention as shown in the following table.

| SMILES | inhibition at 0.001 µM (1 nM test compound) | inhibition at 0.003 µM (3 nM test compound) | inhibition at 0.01 µM (10 nM test compound) | % Inhbition (in nM) 1 (1 nM test compound) | % Inhbition (in nM) 3 (3 nM test compound) | % Inhbition (in nM) 10 (10 nM test compound) |
| --- | --- | --- | --- | --- | --- | --- |
| CS(=O)(=O)NC(CCc1ccccc1C(=O)O)c1cccc(/C=C/c2ccc3ccc(Cl)cc3n2)c1 (stereo not drawn) [Ia.11, 2-(3-{3-[(E)-2-(7-Chloro-quinolin-2-yl)-vinyl]phenyl}-3-methanesulfonylamino-propyl)-benzoic acid] | 46% | 56% | 71% |  |  |  |
| [2H]C([2H])([2H])Oc1ccc(OCC(OCC2CC2)c2cccc(/C=C/c3ccc4ccc(Cl)cc4n3)c2)c(C(=O)O)c1 (stereo not drawn) [Ia.172, 2-(2-{3-[(E)-2-(7-Chloro-quinolin-2-yl)-vinyl]-phenyl}-2-cyclopropylmethoxy-ethoxy)-5-triduetereo methoxy-benzoic acid] |  |  |  | 50% | 77% | 88% |
| CCOC(COc1ccc(OC)cc1C(=O)O)c1cccc(/C=C/c2nc3ccccc3s2)c1 (stereo not drawn) [Ia.192, 2-{2-[3-((E)-2-Benzothiazol-2-yl-vinyl)-phenyl]-2-ethoxy-ethoxy}-5-methoxy-benzoic acid] | 38% | 54% | 74% |  |  |  |
| O=C(N[C@H](CCc1ccccc1C(=O)O)c1cccc(/C=C/c2ccc3ccc(Cl)cc3n2)c1)c1ccco1 [Ia.54, 2-{(R)-3-{3-[(E)-2-(7-Chloro-quinolin-2-yl)-vinyl]-phenyl}-3-[(furan-2-carbonyl)-amino]-propyl}-benzoic acid] | 50% | 60% | 74% |  |  |  |
| O=C(O)c1ccc(C(=O)O)c(CCC2(c3cccc(/C=C/c4ccc5ccc(Cl)cc5n4)c3)OCCO2)c1 [Ib.142] | 15% | 49% | 80% |  |  |  |
| CC1(C)COC(CCc2ccccc2C(=O)O)(c2cccc(/C=C/c3ccc4ccc(Cl)cc4n3)c2)OC1 [Ib.26] | 34% | 53% | 56% |  |  |  |
| CCOC(CSc1ncccc1C(=O)O)c1cccc(/C=C/c2ccc3ccc(Cl)cc3n2)c1 (stereo not drawn) [Ia.205, 2-(2-{3-[(E)-2-(7-Chloro-quinolin-2-yl)-vinyl]-phenyl}-2-ethoxy-ethylsulfanyl)-nicotinic acid] | 46% | 49% | 70% |  |  |  |
